These results are taken from ChEMBL document CHEMBL1121420, “Preparation and antitumor activity of olivomycin A analogues” (1980).

Structures are written as SMILES.

Assay [1] concerns P388. Kind of assay: Tested on P-388 Leukemia for median survival time treated to median survival time control when administered intraperitoneally at a dose of 8 mg/kg. It counts as functional, Mus musculus. As to conditions: route intraperitoneal.
Assay [2] has as its system Mus musculus. Briefly: Average change in weight is tested in mice at a dose of 8 mg/kg. It counts as functional. Further details: unit not given here.
Assay [3] deals with P388. Kind of assay: Tested on P-388 Leukemia for median survival time treated to median survival time control when administered intraperitoneally at a dose of 2 mg/kg. The class given is functional, Mus musculus. To be noted: route intraperitoneal.
In assay [4] the test system is Mus musculus. Kind of assay: Average change in weight is tested in mice at a dose of 2 mg/kg. It counts as functional. Further details: unit not given here.
In assay [5] the test system is P388. Briefly: Tested on P-388 Leukemia for median survival time treated to median survival time control when administered intraperitoneally at a dose of 4 mg/kg. It counts as functional, Mus musculus. As to conditions: route intraperitoneal.
Assay [6] concerns Mus musculus. Briefly: Average change in weight is tested in mice at a dose of 4 mg/kg. It counts as functional. Details: unit not given here.
Assay [7] has as its system Mus musculus. Briefly: Average change in weight is tested in mice at a dose of 16 mg/kg. Further details: unit not given here. The class given is functional.
Assay [8] deals with P388. Kind of assay: Tested on P-388 Leukemia for median survival time treated to median survival time control when administered intraperitoneally at a dose of 16 mg/kg. It counts as functional, Mus musculus. As to conditions: route intraperitoneal.
The subject of assay [9] is P388. Kind of assay: Tested on P-388 Leukemia for median survival time treated to median survival time control when administered intraperitoneally at a dose of 1 mg/kg. It counts as functional, Mus musculus. To be noted: route intraperitoneal.
In assay [10] the test system is Mus musculus. Kind of assay: Average change in weight is tested in mice at a dose of 1 mg/kg. The class given is functional. Further details: unit not given here.
Assay [11] relates to Mus musculus. Briefly: Average change in weight is tested in mice at a dose of 0.5 mg/kg. The class given is functional.
The subject of assay [12] is P388. Kind of assay: Tested on P-388 Leukemia for median survival time treated to median survival time control when administered intraperitoneally at a dose of 0.5 mg/kg. It counts as functional, Mus musculus. As to conditions: route intraperitoneal.

A word on the T/C: it is the ratio of treated to control.

For `COC(C(=O)C1OC2(CCCCC2)OC1C)C1Cc2cc3cc(OC4CC(OC(C)=O)C(OC5CC(O)C(OC)C(C)O5)C(C)O4)cc(O)c3c(O)c2C(=O)C1OC1CC(OC2CC(OC3CC(C)(O)C(OC(=O)C(C)C)C(C)O3)C(O)C(C)O2)C(O)C(C)O1` (stereo unspecified), the T/C with P388 [1] is recorded as 139%; with P388 [3] it was 111%; with P388 [5], 100%; with P388 [8] it was 100%. In addition, the Activity with Mus musculus [2] is listed as 0.2; in the assay with Mus musculus [4] it was 1; in the assay on Mus musculus [6] it was 0; in the assay with Mus musculus [7], 0.7.

Take `COC(/C(=N/Nc1ccccc1)C(O)C(C)O)C1Cc2cc3cc(OC4CC(OC(C)=O)C(OC5CC(O)C(OC)C(C)O5)C(C)O4)cc(O)c3c(O)c2C(=O)C1OC1CC(OC2CC(OC3CC(C)(O)C(OC(=O)C(C)C)C(C)O3)C(O)C(C)O2)C(O)C(C)O1` (stereo unspecified): the T/C with P388 [1] is reported as 140%; in the assay on P388 [3] it was 120%; in the assay with P388 [5] it was 120%; in the assay with P388 [8] it was 140%. Further, the Activity with Mus musculus [2] turned out to be 0.5; with Mus musculus [4], 0.2; in the assay with Mus musculus [6], 0.5; with Mus musculus [7], 1.3.

As to `COC(C(=O)C(O)C(C)O)C1Cc2cc3cc(OC4CC(OC(C)=O)C(OC5CC(O)C(OC)C(C)O5)C(C)O4)c([N+](=O)[O-])c(O)c3c(O)c2C(=O)C1OC1CC(OC2CC(OC3CC(C)(O)C(OC(=O)C(C)C)C(C)O3)C(O)C(C)O2)C(O)C(C)O1` (stereo unspecified), the T/C in the assay with P388 [1] was determined as 100%; with P388 [3], 100%; with P388 [5], 110%; in the assay on P388 [8], 100%. Further, the Activity in the assay with Mus musculus [2] was 3.5; with Mus musculus [4], 2.8; with Mus musculus [6] it was 2; in the assay with Mus musculus [7] it was 2.4.

In the case of `COC(C(=O)C1OC(C)(C)OC1C)C1Cc2cc3cc(OC4CC(OC(C)=O)C(OC5CC(O)C(OC)C(C)O5)C(C)O4)cc(O)c3c(O)c2C(=O)C1OC1CC(OC2CC(OC3CC(C)(O)C(OC(=O)C(C)C)C(C)O3)C(O)C(C)O2)C(O)C(C)O1` (stereo unspecified), the T/C with P388 [1] was 156%; in the assay on P388 [3], 117%; in the assay on P388 [5], 139%; with P388 [8], 167%. Also, the Activity is 0.8 with Mus musculus [2], 0.6 in the assay on Mus musculus [4], 0.3 in the assay on Mus musculus [6] and 1.3 with Mus musculus [7].

With `COC(C(=O)C(O)C(C)O)C1Cc2cc3cc(OC4CC(OC(C)=O)C(OC5CC(O)C(OC)C(C)O5)C(C)O4)cc(O)c3c(O)c2CC1OC1CC(OC2CC(OC3CC(C)(O)C(OC(=O)C(C)C)C(C)O3)C(O)C(C)O2)C(O)C(C)O1` (stereo unspecified), the T/C amounted to 150% in the assay with P388 [1], 150% in the assay on P388 [3], 140% with P388 [5] and 110% in the assay with P388 [9]. The Activity was determined as 1 in the assay on Mus musculus [2], 0.7 in the assay with Mus musculus [4], 0.7 with Mus musculus [6] and 1.1 with Mus musculus [10].

In the case of `COC(/C(=N/NC(N)=O)C(O)C(C)O)C1Cc2cc3cc(OC4CC(OC(C)=O)C(OC5CC(O)C(OC)C(C)O5)C(C)O4)cc(O)c3c(O)c2C(=O)C1OC1CC(OC2CC(OC3CC(C)(O)C(OC(=O)C(C)C)C(C)O3)C(O)C(C)O2)C(O)C(C)O1` (stereo unspecified), the T/C in the assay with P388 [1] worked out at 110%; in the assay with P388 [3], 85%; with P388 [5], 110%; in the assay with P388 [8] it was 105%. Besides, the Activity is given as 1.2 in the assay on Mus musculus [2], 1.8 in the assay on Mus musculus [4], 1.3 with Mus musculus [6] and -2.3 with Mus musculus [7].

With `COC(C(=O)C(O)C(C)O)C1Cc2cc3cc(OC4CC(OC(C)=O)C(OC5CC(O)C(OC)C(C)O5)C(C)O4)cc(O)c3c(O)c2C(=O)C1OC1CC(OC2CC(OC3CC(C)(O)C(OC(=O)C(C)C)C(C)O3)C(O)C(C)O2)C(O)C(C)O1` (stereo unspecified), the Activity is given as 1 with Mus musculus [11], 0 in the assay with Mus musculus [4], 0.4 with Mus musculus [6] and 0.3 in the assay on Mus musculus [10]. For the same molecule, the T/C in the assay on P388 [3] is reported as 146%; in the assay with P388 [5], 157%; in the assay on P388 [9], 130%; with P388 [12], 114%.

With `COC1C(O)CC(OC2C(C)OC(Oc3cc(O)c4c(O)c5c(cc4c3)CC(C(OC)C(O)C(O)C(C)O)C(OC3CC(OC4CC(OC6CC(C)(O)C(OC(=O)C(C)C)C(C)O6)C(O)C(C)O4)C(O)C(C)O3)C5=O)CC2OC(C)=O)OC1C` (stereo unspecified), the T/C in the assay on P388 [1] worked out at 140%; in the assay on P388 [3], 90%; in the assay on P388 [5] it was 125%; in the assay on P388 [8] it was 130%. In addition, the Activity in the assay on Mus musculus [2] stood at 0.2; in the assay with Mus musculus [4], 1.1; in the assay with Mus musculus [6], 0.2; in the assay on Mus musculus [7], 0.9.

For the molecule `COC1C(O)CC(OC2C(C)OC(Oc3cc(O)c4c(O)c5c(cc4c3)CC(C(OC)C(O)C(O)C(C)O)C(OC3CC(OC4CC(OC6CC(C)(O)C(OC(=O)C(C)C)C(C)O6)C(O)C(C)O4)C(O)C(C)O3)C5)CC2OC(C)=O)OC1C` (stereo unspecified), the T/C in the assay on P388 [1] is on record as 106%; in the assay with P388 [3], 100%; in the assay on P388 [5], 100%; in the assay with P388 [8], 139%. In addition, the Activity in the assay on Mus musculus [2] is reported as 3.5; with Mus musculus [4] it was 5.3; with Mus musculus [6] it was 3.7; in the assay with Mus musculus [7], 0.5.

Take `COC(C(=O)C(O)C(C)O)C1Cc2cc3cc(OC4CC(OC(C)=O)C(OC5CC(O)C(OC)C(C)O5)C(C)O4)c(Br)c(O)c3c(O)c2C(=O)C1OC1CC(OC2CC(OC3CC(C)(O)C(OC(=O)C(C)C)C(C)O3)C(O)C(C)O2)C(O)C(C)O1` (stereo unspecified): the T/C in the assay with P388 [1] is on record as 150%; in the assay on P388 [3] it was 110%; in the assay with P388 [5] it was 120%; in the assay on P388 [8], 130%. In addition, the Activity in the assay with Mus musculus [2] is recorded as 0.1; with Mus musculus [4], 0.3; in the assay with Mus musculus [6] it was 1.2; in the assay with Mus musculus [7], 0.1.

With `C/N=C(\C(O)C(C)O)C(OC)C1Cc2cc3cc(OC4CC(OC(C)=O)C(OC5CC(O)C(OC)C(C)O5)C(C)O4)cc(O)c3c(O)c2CC1OC1CC(OC2CC(OC3CC(C)(O)C(OC(=O)C(C)C)C(C)O3)C(O)C(C)O2)C(O)C(C)O1` (stereo unspecified), the T/C in the assay on P388 [1] is reported as 115%; in the assay with P388 [3], 140%; in the assay on P388 [5] it was 110%; with P388 [9], 125%. Moreover, the Activity in the assay on Mus musculus [2] is on record as -3.3; with Mus musculus [4] it was -0.3; in the assay on Mus musculus [6], 0.4; in the assay on Mus musculus [10] it was 0.3.

For `COc1cc(OC2CC(OC(C)=O)C(OC3CC(O)C(OC)C(C)O3)C(C)O2)cc2cc3c(c(OC)c12)C(=O)C(OC1CC(OC2CC(OC4CC(C)(O)C(OC(=O)C(C)C)C(C)O4)C(O)C(C)O2)C(O)C(C)O1)C(C(OC)C(=O)C(O)C(C)O)C3` (stereo unspecified), the T/C is reported as 155% in the assay with P388 [1], 115% with P388 [3], 130% in the assay with P388 [5] and 140% in the assay with P388 [8]. The Activity in the assay with Mus musculus [2] is 0.4; with Mus musculus [4], 0.3; in the assay on Mus musculus [6] it was 0.2; with Mus musculus [7], 0.9.
